A value given as a limit tells only on which side of the number the result lay.

Assay [1] concerns the target recombinant human FLAP protein (Homo sapiens (Human), UniProt P20292). Nature of the assay: FLAP binding assay (Scintillation Proximity Assay, displacement of [125I]L-691,831). The following applies: read-out: FLAP SPA IC50. In short, it runs like this: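 Scintillation proximity displacement of an iodinated (125I) FLAP inhibitor by test compounds, using 100,000×g membrane fraction from lysed cells. Final beads 200 μg/well and protein 5 μg/well; plates shaken 2 h before reading.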
(In general: SPA uses beads or plates that emit light when radiolabelled molecules are held near them.)

For assay [2], the system named is synthesis of LTB4 in human whole blood. Nature of the assay: Human whole blood LTB4 production inhibition assay. Type of assay: cell-based. The following applies: calcimycin stimulated, read-out: hWB LTB4 IC50. In short, it runs like this: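 LTB4 levels in plasma were measured by antibody-based HTRF after heparinized human whole blood, pretreated with compound (15 min, 37° C), was challenged with 20 μM calcimycin for 30 min at 37° C.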

Chain of recombinant human FLAP protein (P20292 whole entry): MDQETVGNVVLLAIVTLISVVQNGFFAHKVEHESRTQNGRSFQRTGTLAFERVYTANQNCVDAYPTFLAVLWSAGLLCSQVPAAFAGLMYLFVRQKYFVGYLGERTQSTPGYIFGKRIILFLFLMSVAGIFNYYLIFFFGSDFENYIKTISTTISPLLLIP

Consider `Nc1ncc(-c2ccc(C3(c4noc(-c5ccnc(O)c5)n4)CCC3)cn2)cn1` [Example 91, 4-(3-{1-[6-(2-aminopyrimidin-5-yl)pyridin-3-yl]cyclobutyl}-1,2,4-oxadiazol-5-yl)pyridin-2-ol], for which the IC50 (in general, the concentration at which inhibition is half-maximal) in assay [1] is 24 nM; in assay [2] it was 330 nM.

On to `Cc1cc(-c2nc(C3(c4ccc(-c5cnc(N)nc5)nc4)CCC3)no2)n(C)n1` [Example 121, 5-(5-{1-[5-(1,3-dimethyl-1H-pyrazol-5-yl)-1,2,4-oxadiazol-3-yl]cyclobutyl}pyridin-2-yl)pyrimidin-2-amine], for which the IC50 was 28 nM in assay [1] and 1800 nM in assay [2].

`Nc1ncc(-c2ccc(C3(c4noc(-c5ccc(-n6ccnc6)nc5)n4)CCC3)cn2)cn1` [Example 31, 5-[5-(1-{5-[6-(1H-imidazol-1-yl)pyridin-3-yl]-1,2,4-oxadiazol-3-yl}cyclobutyl)pyridin-2-yl]pyrimidin-2-amine]: the IC50 in assay [1] is 1.9 nM; in assay [2], 300 nM.

Regarding `Nc1ncc(-c2ccc(C3(c4noc(-c5cnn(C(F)F)c5)n4)CCC3)cn2)cn1` [Example 66, 5-[5-(1-{5-[1-(difluoromethyl)-1H-pyrazol-4-yl]-1,2,4-oxadiazol-3-yl}cyclobutyl)pyridin-2-yl]pyrimidin-2-amine], the IC50 in assay [1] was 7.4 nM; in assay [2], 200 nM.

`Cn1cnc(-c2nc(C3(c4ccc(-c5cnc(N)nc5)nc4)CCC3)no2)c1` [Example 131, 5-(5-{1-[5-(1-methyl-1H-imidazol-4-yl)-1,2,4-oxadiazol-3-yl]cyclobutyl}pyridin-2-yl)pyrimidin-2-amine]: the IC50 came to 52 nM in assay [1] and 300 nM in assay [2].

As to `Nc1ncc(-c2ccc(C3(c4noc(-c5cnccc5Cl)n4)CCC3)cn2)cn1` [Example 88, 5-(5-{1-[5-(4-chloropyridin-3-yl)-1,2,4-oxadiazol-3-yl]cyclobutyl}pyridin-2-yl)pyrimidin-2-amine], the figures for the IC50 in assay [1] and in assay [2] were 7.3 nM and 490 nM, respectively.

On to `CC(C)(CO)Nc1ccc(-c2nc(C3(c4ccc(-c5cnc(N)nc5)nc4)CCC3)no2)cn1` [Example 21, 2-{[5-(3-{1-[6-(2-aminopyrimidin-5-yl)pyridin-3-yl]cyclobutyl}-1,2,4-oxadiazol-5-yl)pyridin-2-yl]amino}-2-methylpropan-1-ol], for which the IC50 in assay [1] amounted to 2.6 nM; in assay [2] it was 250 nM.

Regarding `Nc1ncc(-c2ccc(C3(c4noc(-c5ccnnc5)n4)CCC3)cn2)cn1` [Example 104, 5-(5-{1-[5-(pyridazin-4-yl)-1,2,4-oxadiazol-3-yl]cyclobutyl}pyridin-2-yl)pyrimidin-2-amine], the IC50 in assay [1] is 110 nM; in assay [2] it was 2100 nM.

On to `N#CCn1cc(-c2nc(C3(c4ccc(-c5cnc(N)nc5)nc4)CCC3)no2)cn1` [Example 141, [4-(3-{1-[6-(2-aminopyrimidin-5-yl)pyridin-3-yl]cyclobutyl}-1,2,4-oxadiazol-5-yl)-1H-pyrazol-1-yl]acetonitrile], for which the IC50 in assay [1] stood at 11 nM; in assay [2], 85 nM.

For the compound `Nc1ncc(-c2ccc(C3(c4noc(-c5ccc(N6CCNC(=O)C6)nc5)n4)CCC3)cn2)cn1` [Example 125, 4-[5-(3-{1-[6-(2-aminopyrimidin-5-yl)pyridin-3-yl]cyclobutyl}-1,2,4-oxadiazol-5-yl)pyridin-2-yl]piperazin-2-one], the IC50 in assay [1] was 1.8 nM; in assay [2], 160 nM.

Turning to `CCn1cc(-c2nc(C3(c4ccc(-c5cnc(N)nc5)nc4)CCC3)no2)cn1` [Example 63, 5-(5-{1-[5-(1-ethyl-1H-pyrazol-4-yl)-1,2,4-oxadiazol-3-yl]cyclobutyl}pyridin-2-yl)pyrimidin-2-amine], the IC50 worked out at 8.8 nM in assay [1] and 190 nM in assay [2].

Regarding `Nc1ncc(-c2ccc(C3(c4noc(-c5ccc[nH]c5=O)n4)CCC3)cn2)cn1` [Example 95, 3-(3-{1-[6-(2-aminopyrimidin-5-yl)pyridin-3-yl]cyclobutyl}-1,2,4-oxadiazol-5-yl)pyridin-2(1H)-one], the figures for the IC50 in assay [1] and in assay [2] were 29 nM and more than 5000 nM, respectively.

As to `CN(CC1CCCO1)C(=O)Cn1cc(-c2nc(C3(c4ccc(-c5cnc(N)nc5)nc4)CCC3)no2)cn1` (stereo not drawn) [Example 159, 2-[4-(3-{1-[6-(2-amino-pyrimidin-5-yl)-pyridin-3-yl]-cyclobutyl}-[1,2,4]oxadiazol-5-yl)-pyrazol-1-yl]-N-methyl-N-(tetrahydro-furan-2-ylmethyl)-acetamide], the IC50 in assay [1] is 83 nM; in assay [2] it was 510 nM.

For `COc1ccc(-c2nc(C3(c4ccc(-c5cnc(N)nc5)nc4)CCC3)no2)c(OC)n1` [Example 96, 5-(5-{1-[5-(2,6-dimethoxypyridin-3-yl)-1,2,4-oxadiazol-3-yl]cyclobutyl}pyridin-2-yl)pyrimidin-2-amine], the IC50 in assay [1] stood at 7.3 nM; in assay [2] it was 1100 nM.

As for `CNc1cnc(-c2ccc(C3(c4noc(-c5cnn(CC(C)(C)O)c5)n4)CCC3)cn2)cn1` [Example 177, 2-Methyl-1-[4-(3-{1-[6-(5-methylamino-pyrazin-2-yl)-pyridin-3-yl]-cyclobutyl}-[1,2,4]oxadiazol-5-yl)-pyrazol-1-yl]-propan-2-ol], the IC50 in assay [1] was determined as 32 nM; in assay [2] it was 160 nM.

For `Cn1cc(-c2nc(C3(c4ccc(-c5cnc(N)nc5)nc4)CCC3)no2)cn1` [Example 102, 5-(5-{1-[5-(1-methyl-1H-pyrazol-4-yl)-1,2,4-oxadiazol-3-yl]cyclobutyl}pyridin-2-yl)pyrimidin-2-amine], the IC50 in assay [1] is 13 nM; in assay [2], 270 nM.

Take `Cc1n[nH]cc1-c1nc(C2(c3ccc(-c4cnc(N)nc4)nc3)CCC2)no1` [Example 78, 5-(5-{1-[5-(3-methyl-1H-pyrazol-4-yl)-1,2,4-oxadiazol-3-yl]cyclobutyl}pyridin-2-yl)pyrimidin-2-amine]: the IC50 worked out at 4.7 nM in assay [1] and 220 nM in assay [2].

For the compound `CC(C)n1cc(-c2nc(C3(c4ccc(-c5cnc(N)nc5)nc4)CCC3)no2)cn1` [Example 64, 5-[5-(1-{5-[1-(propan-2-yl)-1H-pyrazol-4-yl]-1,2,4-oxadiazol-3-yl}cyclobutyl)pyridin-2-yl]pyrimidin-2-amine], the IC50 in assay [1] was 7.2 nM; in assay [2] it was 170 nM.

As to `CCN(C)C(=O)Cn1cc(-c2nc(C3(c4ccc(-c5cnc(N)nc5)nc4)CCC3)no2)cn1` [Example 162, 2-[4-(3-{1-[6-(2-amino-pyrimidin-5-yl)-pyridin-3-yl]-cyclobutyl}-[1,2,4]oxadiazol-5-yl)-pyrazol-1-yl]-N-ethyl-N-methyl-acetamide], the IC50 in assay [1] worked out at 130 nM; in assay [2], 490 nM.

For `Cc1nc(C)c(-c2nc(C3(c4ccc(-c5cnc(N)nc5)nc4)CCC3)no2)s1` [Example 94, 5-(5-{1-[5-(2,4-dimethyl-1,3-thiazol-5-yl)-1,2,4-oxadiazol-3-yl]cyclobutyl}pyridin-2-yl)pyrimidin-2-amine], the results for the IC50 in assay [1] and in assay [2] were 8.1 nM and 650 nM, respectively.

With `CC(C)(C)OC(=O)N1CCN(c2ccc(-c3nc(C4(c5ccc(-c6cnc(N)nc6)nc5)CCC4)no3)cn2)CC1` [Example 1, tert-butyl 4-[5-(3-{1-[6-(2-aminopyrimidin-5-yl)pyridin-3-yl]cyclobutyl}-1,2,4-oxadiazol-5-yl)pyridin-2-yl]piperazine-1-carboxylate], the IC50 in assay [1] came to 3.8 nM; in assay [2], 280 nM.

(Values after patent US8575201B2 (Boehringer Ingelheim International GmbH, priority 2010, dated 2013).)
